This experiment addresses T1, voltage-dependent T-type calcium channel subunit alpha-1G (Cav3.2) (Homo sapiens, UniProt O95180).
T1 construct: expressed in transfected cells; host or cells: HEK293
Kind of experiment: FLIPR calcium flux assay, HEK293 cells recombinantly expressing Cav3.2. The conditions noted are these: Cav3.2-channel, Fluo-4-AM, 3 min incubation, stimulation with 10 mM CaCl2. In kind it is cell-based. How it is done: In Vitro Methods—Measurement of Calcium Channel Flux by Means of FLIPR Assays.
HEK293 cells recombinantly expressing either voltage-dependent T-type calcium channel subunit […] (Cav3.2) or voltage-dependent L-type calcium channel subunit alpha-1C (Cav1.2) are assayed for calcium flux using the calcium indicator dye Fluo-4-AM (Molecular Devices) and FLIPR technology (Fluorometric Imaging Plate Reader, Molecular Devices) (Xie X, Van Deusen A L, Vitko I, Babu D A, Davies L A, Huynh N, Cheng H, Yang N, Barrett P Q, Perez-Reyes E. Validation of high throughput screening assays against three subtypes of Ca(v)3 T-type channels using molecular and pharmacologic approaches. Assay and Drug Development Technologies 2007, 5(2), 191-203). The HEK293 cells recombinantly expressing Cav3.2 are maintained in DMEM growth medium (Life Technologies) supplemented with 10% Fetal Bovine Serum (FBS), 100 U/ml penicilin (Life Technologies), 100 μg/ml streptomycin (Life Technologies) and 1 mg/ml G418 (Life Technologies). HEK293 cells recombinantly expressing Cav1.2 are maintained in DMEM growth medium (Life technologies) supplemented with 10% FBS, 0.1 mg/ml G418 (Life Technologies), 0.1 mg/ml hygromycin (Life Technologies) and 40 ug/ml zeocin (Life Technologies).
The seeded plates are incubated overnight at 37° C.
The cells are then washed three times with assay buffer (HBSS 1×; 0.375 g/L NaHCO3; 20 mM Hepes; 1% FBS; pH 7.4) and allowed to rest in 50 μl of wash buffer for 30 minutes.
Stock solutions of test compounds are prepared to a concentration of 10 mM in DMSO. For the Cav3.2 assay, serial dilutions of the compounds are prepared in TEAC buffer (100 mM tetraethylammonium chloride; 20 mM Hepes; 2.5 mM CaCl2; 5 mM KCl; 1 mM MgCl2; 1% FBS; pH 7.2), for the Cav1.2 assay serial dilutions are prepared in assay buffer. […] The compounds are incubated with the cells for 3 minutes and Ca2+ entry is stimulated by adding either CaCl2 to a final concentration of 10 mM (Cav3.2 assay) or by adding KCl to a final concentration of 20 mM (Cav1.2 assay). The kinetics of fluorescence increase are recorded for every well and the area under the fluorescence trace for every compound concentration is used to generate inhibition curves using non-linear regression sigmoidal concentration-response curve analysis with in-house software.
Background: A change in cytosolic calcium serves as a functional read-out for many receptors and channels.
T1 sequence (O95180 whole entry): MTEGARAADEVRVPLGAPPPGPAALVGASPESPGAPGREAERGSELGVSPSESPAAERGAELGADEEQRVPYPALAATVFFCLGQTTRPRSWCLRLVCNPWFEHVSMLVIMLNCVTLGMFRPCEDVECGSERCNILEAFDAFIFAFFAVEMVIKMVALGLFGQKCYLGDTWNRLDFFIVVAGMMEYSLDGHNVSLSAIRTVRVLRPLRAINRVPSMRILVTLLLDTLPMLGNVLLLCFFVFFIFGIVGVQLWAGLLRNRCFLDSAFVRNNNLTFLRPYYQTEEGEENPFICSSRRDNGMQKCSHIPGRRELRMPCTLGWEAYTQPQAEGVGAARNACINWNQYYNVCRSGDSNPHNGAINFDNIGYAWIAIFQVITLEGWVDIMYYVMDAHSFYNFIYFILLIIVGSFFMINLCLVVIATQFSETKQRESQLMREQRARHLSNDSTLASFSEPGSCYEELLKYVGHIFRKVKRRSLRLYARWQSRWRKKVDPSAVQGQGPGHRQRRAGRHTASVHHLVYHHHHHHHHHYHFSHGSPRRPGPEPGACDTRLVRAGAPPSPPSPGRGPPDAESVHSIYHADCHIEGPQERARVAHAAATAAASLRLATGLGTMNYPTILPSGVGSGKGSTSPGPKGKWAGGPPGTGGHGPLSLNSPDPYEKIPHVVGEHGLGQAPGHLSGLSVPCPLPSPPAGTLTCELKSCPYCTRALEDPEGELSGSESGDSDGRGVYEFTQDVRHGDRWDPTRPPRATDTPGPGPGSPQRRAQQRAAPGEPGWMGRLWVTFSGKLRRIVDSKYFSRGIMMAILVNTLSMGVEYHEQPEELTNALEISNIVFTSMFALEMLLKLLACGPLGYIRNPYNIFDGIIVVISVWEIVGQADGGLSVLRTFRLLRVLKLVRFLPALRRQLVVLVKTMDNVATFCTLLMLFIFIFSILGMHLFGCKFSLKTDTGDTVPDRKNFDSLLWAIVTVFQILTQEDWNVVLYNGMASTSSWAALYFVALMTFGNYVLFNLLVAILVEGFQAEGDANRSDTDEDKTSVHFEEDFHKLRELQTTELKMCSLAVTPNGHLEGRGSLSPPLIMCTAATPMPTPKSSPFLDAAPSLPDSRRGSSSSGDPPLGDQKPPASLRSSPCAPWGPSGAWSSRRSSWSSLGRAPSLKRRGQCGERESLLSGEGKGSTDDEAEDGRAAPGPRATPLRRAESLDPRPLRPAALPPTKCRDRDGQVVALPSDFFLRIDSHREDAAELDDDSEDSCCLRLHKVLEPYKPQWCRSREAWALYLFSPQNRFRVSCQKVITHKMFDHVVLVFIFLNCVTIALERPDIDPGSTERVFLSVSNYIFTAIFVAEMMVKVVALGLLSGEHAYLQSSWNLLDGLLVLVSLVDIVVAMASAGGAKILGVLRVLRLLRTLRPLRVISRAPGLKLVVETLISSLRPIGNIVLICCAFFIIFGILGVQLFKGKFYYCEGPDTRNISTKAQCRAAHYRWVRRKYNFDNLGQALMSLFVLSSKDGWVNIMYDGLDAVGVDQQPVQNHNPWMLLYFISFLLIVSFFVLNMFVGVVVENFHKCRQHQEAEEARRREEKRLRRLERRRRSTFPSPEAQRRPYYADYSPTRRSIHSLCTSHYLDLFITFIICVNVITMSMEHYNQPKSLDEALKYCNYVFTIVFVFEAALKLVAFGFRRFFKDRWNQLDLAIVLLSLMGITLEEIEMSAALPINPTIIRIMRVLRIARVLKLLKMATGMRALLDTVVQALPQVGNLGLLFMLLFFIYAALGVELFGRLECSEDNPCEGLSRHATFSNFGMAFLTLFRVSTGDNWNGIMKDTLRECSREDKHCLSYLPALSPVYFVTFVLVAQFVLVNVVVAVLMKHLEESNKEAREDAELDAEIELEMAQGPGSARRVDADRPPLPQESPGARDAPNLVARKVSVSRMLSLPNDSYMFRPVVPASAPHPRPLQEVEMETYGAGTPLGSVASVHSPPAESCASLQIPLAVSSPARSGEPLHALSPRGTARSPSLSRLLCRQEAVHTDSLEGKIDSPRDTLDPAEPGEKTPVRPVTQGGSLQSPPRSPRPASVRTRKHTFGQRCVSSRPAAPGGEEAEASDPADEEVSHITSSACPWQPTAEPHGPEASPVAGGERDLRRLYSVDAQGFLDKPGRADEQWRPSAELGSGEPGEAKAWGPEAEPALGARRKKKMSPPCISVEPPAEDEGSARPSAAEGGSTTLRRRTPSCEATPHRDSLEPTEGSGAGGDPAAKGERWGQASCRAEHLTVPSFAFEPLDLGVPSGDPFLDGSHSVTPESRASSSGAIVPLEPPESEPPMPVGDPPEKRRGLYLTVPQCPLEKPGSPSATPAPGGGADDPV
As usually defined, the IC50 is the point on the concentration scale where inhibition reaches its midpoint. For the compound `CN(C)c1ccc(CC(=O)Nc2ccn(Cc3ccc(Cl)c(OC(F)(F)F)c3)n2)cc1` [Example 34, N-[1-(4-Chloro-3-trifluoromethoxy-benzyl)-1H-pyrazol-3-yl]-2-(4-dimethylamino-phenyl)-acetamide], the IC50 is 0.091 µM.

Consider `CCc1ccc(Cn2ccc(NC(=O)Cc3ccc(N(C)C)nc3)n2)cc1` [Example 35, 2-(6-Dimethylamino-pyridin-3-yl)-N-[1-(4-ethyl-benzyl)-1H-pyrazol-3-yl]-acetamide], for which the IC50 came to 0.043 µM.

On to `CN(C)c1ccc(CC(=O)Nc2ccn(Cc3ccc(OC(F)F)cc3)n2)cn1` [Example 36, N-[1-(4-Difluoromethoxy-benzyl)-1H-pyrazol-3-yl]-2-(6-dimethylamino-pyridin-3-yl)-acetamide], for which the IC50 was determined as 0.16 µM.

On to `CN(C)c1ccc(CC(=O)Nc2ccn(Cc3ccc(OC(F)(F)F)cc3)n2)cn1` [Example 37, 2-(6-Dimethylamino-pyridin-3-yl)-N-[1-(4-trifluoromethoxy-benzyl)-1H-pyrazol-3-yl]-acetamide], for which the IC50 came to 0.029 µM.

Turning to `Cc1ccc(Cn2ccc(NC(=O)Cc3ccc(N(C)C)nc3)n2)cc1F` [Example 38, 2-(6-Dimethylamino-pyridin-3-yl)-N-[1-(3-fluoro-4-methyl-benzyl)-1H-pyrazol-3-yl]-acetamide], the IC50 was found to be 0.039 µM.

For the compound `Cc1cc(Cn2ccc(NC(=O)Cc3ccc(N(C)C)nc3)n2)ccc1F` [Example 39, 2-(6-Dimethylamino-pyridin-3-yl)-N-[1-(4-fluoro-3-methyl-benzyl)-1H-pyrazol-3-yl]-acetamide], the IC50 was 0.049 µM.

In the case of `CN(C)c1ccc(CC(=O)Nc2ccn(Cc3ccc(F)c(Cl)c3)n2)cn1` [Example 40, N-[1-(3-Chloro-4-fluoro-benzyl)-1H-pyrazol-3-yl]-2-(6-dimethylamino-pyridin-3-yl)-acetamide], the IC50 amounted to 0.016 µM.

Take `CN(C)c1ccc(CC(=O)Nc2ccn(Cc3cc(F)c(F)c(F)c3)n2)cn1` [Example 41, 2-(6-Dimethylamino-pyridin-3-yl)-N-[1-(3,4,5-trifluoro-benzyl)-1H-pyrazol-3-yl]-acetamide]: the IC50 amounted to 0.038 µM.

As for `CN(C)c1ccc(CC(=O)Nc2ccn(Cc3ccc(Cl)c(F)c3)n2)cn1` [Example 42, N-[1-(4-Chloro-3-fluoro-benzyl)-1H-pyrazol-3-yl]-2-(6-dimethylamino-pyridin-3-yl)-acetamide], the IC50 turned out to be 0.019 µM.

With `COc1c(F)cc(Cn2ccc(NC(=O)Cc3ccc(N(C)C)nc3)n2)cc1F` [Example 43, N-[1-(3,5-Difluoro-4-methoxy-benzyl)-1H-pyrazol-3-yl]-2-(6-dimethylamino-pyridin-3-yl)-acetamide], the IC50 was determined as 0.082 µM.

As for `COc1ccc(Cn2ccc(NC(=O)Cc3ccc(N(C)C)cc3)n2)nc1` [Example 44, 2-(4-Dimethylamino-phenyl)-N-[1-(5-methoxy-pyridin-2-ylmethyl)-1H-pyrazol-3-yl]-acetamide], the IC50 was determined as 0.372 µM.

For `COc1ccc(Cn2ccc(NC(=O)Cc3ccc(OCC(F)(F)F)cc3)n2)cc1` [Example 45, N-[1-(4-Methoxy-benzyl)-1H-pyrazol-3-yl]-2-[4-(2,2,2-trifluoro-ethoxy)-phenyl]-acetamide], the IC50 came to 0.033 µM.

As for `O=C(Cc1ccc(OCC(F)(F)F)cc1)Nc1ccn(Cc2ccc(F)cc2)n1` [Example 46, N-[1-(4-Fluoro-benzyl)-1H-pyrazol-3-yl]-2-[4-(2,2,2-trifluoro-ethoxy)-phenyl]-acetamide], the IC50 was 0.026 µM.

As for `N#Cc1ccc(Cn2ccc(NC(=O)Cc3ccc(OCC(F)(F)F)cc3)n2)cc1` [Example 47, N-[1-(4-Cyano-benzyl)-1H-pyrazol-3-yl]-2-[4-(2,2,2-trifluoro-ethoxy)-phenyl]-acetamide], the IC50 was 0.037 µM.

Turning to `CCN(C)c1ccc(CC(=O)Nc2ccn(Cc3ccc(F)cc3)n2)cn1` [Example 48, 2-[6-(Ethyl-methyl-amino)-pyridin-3-yl]-N-[1-(4-fluoro-benzyl)-1H-pyrazol-3-yl]-acetamide], the IC50 amounted to 0.138 µM.

With `O=C(Cc1ccc(N2CC(F)(F)C2)cc1)Nc1ccn(Cc2ccc(F)cc2)n1` [Example 49, 2-[4-(3,3-Difluoro-azetidin-1-yl)-phenyl]-N-[1-(4-fluoro-benzyl)-H-pyrazol-3-yl]-acetamide], the IC50 is 0.0092 µM.

As to `N#Cc1ccc(Cn2ccc(NC(=O)Cc3ccc(N4CC(F)(F)C4)cc3)n2)cc1` [Example 50, N-[1-(4-Cyano-benzyl)-1H-pyrazol-3-yl]-2-[4-(3,3-difluoro-azetidin-1-yl)-phenyl]-acetamide], the IC50 was found to be 0.011 µM.

`COc1ccc(Cn2ccc(NC(=O)Cc3ccc(N4CC(F)(F)C4)cc3)n2)cc1` [Example 51, 2-[4-(3,3-Difluoro-azetidin-1-yl)-phenyl]-N-[1-(4-methoxy-benzyl)-1H-pyrazol-3-yl]-acetamide]: the half-inhibitory concentration (IC50) worked out at 0.016 µM.

Regarding `O=C(Cc1ccc(N2CC(F)(F)C2)cc1)Nc1ccn(Cc2ccc(F)c(F)c2)n1` [Example 52, 2-[4-(3,3-Difluoro-azetidin-1-yl)-phenyl]-N-[1-(3,4-difluoro-benzyl)-1H-pyrazol-3-yl]-acetamide], the IC50 came to 0.0026 µM.

In the case of `O=C(Cc1ccc(N2CCC2)cc1)Nc1ccn(Cc2ccc(F)cc2)n1` [Example 53, 2-(4-Azetidin-1-yl-phenyl)-N-[1-(4-fluoro-benzyl)-1H-pyrazol-3-yl]-acetamide], the IC50 was determined as 0.0067 µM.

`N#Cc1ccc(Cn2ccc(NC(=O)Cc3ccc(N4CCC4)cc3)n2)cc1` [Example 54, 2-(4-Azetidin-1-yl-phenyl)-N-[1-(4-cyano-benzyl)-1H-pyrazol-3-yl]-acetamide]: the IC50 worked out at 0.028 µM.

`COc1ccc(Cn2ccc(NC(=O)Cc3ccc(N4CCC4)cc3)n2)cc1` [Example 55, 2-(4-Azetidin-1-yl-phenyl)-N-[1-(4-methoxy-benzyl)-1H-pyrazol-3-yl]-acetamide]: the IC50 came out at 0.033 µM.

Consider `CN(C)c1ccc(CC(=O)Nc2ccn(Cc3ccc(C#N)c(F)c3)n2)cn1` [Example 58, N-[1-(4-Cyano-3-fluoro-benzyl)-1H-pyrazol-3-yl]-2-(6-dimethylamino-pyridin-3-yl)-acetamide], for which the IC50 amounted to 0.285 µM.

Regarding `O=C(Cc1ccc(N2CCC2)cc1)Nc1ccn(Cc2ccc(F)c(F)c2)n1` [Example 60, 2-(4-Azetidin-1-yl-phenyl)-N-[1-(3,4-difluoro-benzyl)-1H-pyrazol-3-yl]-acetamide], the IC50 amounted to 0.0047 µM.

Take `O=C(Cc1ccc(N2CC[C@H](F)C2)cc1)Nc1ccn(Cc2ccc(F)c(F)c2)n1` [Example 61, N-[1-(3,4-Difluoro-benzyl)-1H-pyrazol-3-yl]-2-[4-((S)-3-fluoro-pyrrolidin-1-yl)-phenyl]-acetamide]: the IC50 was 0.0034 µM.

Take `O=C(Cc1ccc(N2CC(F)C2)cc1)Nc1ccn(Cc2ccc(F)c(F)c2)n1` [Example 62, N-[1-(3,4-Difluoro-benzyl)-1H-pyrazol-3-yl]-2-[4-(3-fluoro-azetidin-1-yl)-phenyl]-acetamide]: the IC50 came out at 0.0038 µM.

On to `O=C(Cc1ccc(OC2CC2)cc1)Nc1ccn(Cc2ccc(F)cc2)n1` [Example 63, 2-(4-Cyclopropoxy-phenyl)-N-[1-(4-fluoro-benzyl)-1H-pyrazol-3-yl]-acetamide], for which the IC50 came to 0.038 µM.

As to `N#Cc1ccc(Cn2ccc(NC(=O)Cc3ccc(OC4CC4)cc3)n2)cc1` [Example 64, N-[1-(4-Cyano-benzyl)-1H-pyrazol-3-yl]-2-(4-cyclopropoxy-phenyl)-acetamide], the IC50 was determined as 0.08 µM.

In the case of `COc1ccc(Cn2ccc(NC(=O)Cc3ccc(OC4CC4)cc3)n2)cc1` [Example 65, 2-(4-Cyclopropoxy-phenyl)-N-[1-(4-methoxy-benzyl)-1H-pyrazol-3-yl]-acetamide], the IC50 stood at 0.074 µM.

On to `O=C(Cc1ccc(OC2CC2)cc1)Nc1ccn(Cc2ccc(F)c(F)c2)n1` [Example 66, 2-(4-Cyclopropoxy-phenyl)-N-[1-(3,4-difluoro-benzyl)-1H-pyrazol-3-yl]-acetamide], for which the IC50 worked out at 0.019 µM.

For the compound `O=C(Cc1ccc(N2CCC(F)(F)C2)cc1)Nc1ccn(Cc2ccc(F)c(F)c2)n1` [Example 67, N-[1-(3,4-Difluoro-benzyl)-1H-pyrazol-3-yl]-2-[4-(3,3-difluoro-pyrrolidin-1-yl)-phenyl]-acetamide], the IC50 came out at 0.0034 µM.

With `O=C(Cc1ccc(N2CC[C@@H](F)C2)cc1)Nc1ccn(Cc2ccc(F)c(F)c2)n1` [Example 68, N-[1-(3,4-Difluoro-benzyl)-1H-pyrazol-3-yl]-2-[4-((R)-3-fluoro-pyrrolidin-1-yl)-phenyl]-acetamide], the IC50 was found to be 0.0048 µM.

Source of the values: patent US9932314B2, “Pyrazole compounds and their use as T-type calcium channel blockers” (IDORSIA PHARMACEUTICALS LTD, priority 2015, dated 2018).
